Literature values, collected in patent US20240041944A1, “OPTIMIZED INDIVIDUALIZED PREBIOTIC COMPOSITIONS” (ISOThrive LLC, priority 2016, published 2024).
“Also recorded” adds a separate entry of the source. Ends that are not written are not given here.

B1: Pyocin S2: class III bacteriocin produced by P. aeruginosa 42A (protein, UniProt Q06584 2-689, looked up)
Pyocin-S2: AVNDYEPGSMVITHVQGGGRDIIQYIPARSSYGTPPFVPPGPSPYVGTGMQEYRKLRSTLDKSHSELKKNLKNETLKEVDELKSEAGLPGKAVSANDIRDEKSIVDALMDAKAKSLKAIEDRPANLYTASDFPQKSESMYQSQLLASRKFYGEFLDRHMSELAKAYSADIYKAQIAILKQTSQELENKARSLEAEAQRAAAEVEADYKARKANVEKKVQSELDQAGNALPQLTNPTPEQWLERATQLVTQAIANKKKLQTANNALIAKAPNALEKQKATYNADLLVDEIASLQARLDKLNAETARRKEIARQAAIRAANTYAMPANGSVVATAAGRGLIQVAQGAASLAQAISDAIAVLGRVLASAPSVMAVGFASLTYSSRTAEQWQDQTPDSVRYALGMDAAKLGLPPSVNLNAVAKASGTVDLPMRLTNEARGNTTTLSVVSTDGVSVPKAVPVRMAAYNATTGLYEVTVPSTTAEAPPLILTWTPASPPGNQNPSSTTPVVPKPVPVYEGATLTPVKATPETYPGVITLPEDLIIGFPADSGIKPIYVMFRDPRDVPGAATGKGQPVSGNWLGAASQGEGAPIPSQIADKLRGKTFKNWRDFREQFWIAVANDPELSKQFNPGSLAVMRDGGAPYVRESEQAGGRIKIEIHHKVRIADGGGVYNMGNLVAVTPKRHIEIHKGGK
B2: Colicin E1: class III bacteriocin produced by E. coli (protein, UniProt P02978 1-522, looked up)
Colicin-E1: METAVAYYKDGVPYDDKGQVIITLLNGTPDGSGSGGGGGKGGSKSESSAAIHATAKWSTAQLKKTQAEQAARAKAAAEAQAKAKANRDALTQRLKDIVNEALRHNASRTPSATELAHANNAAMQAEDERLRLAKAEEKARKEAEAAEKAFQEAEQRRKEIEREKAETERQLKLAEAEEKRLAALSEEAKAVEIAQKKLSAAQSEVVKMDGEIKTLNSRLSSSIHARDAEMKTLAGKRNELAQASAKYKELDELVKKLSPRANDPLQNRPFFEATRRRVGAGKIREEKQKQVTASETRINRINADITQIQKAISQVSNNRNAGIARVHEAEENLKKAQNNLLNSQIKDAVDATVSFYQTLTEKYGEKYSKMAQELADKSKGKKIGNVNEALAAFEKYKDVLNKKFSKADRDAIFNALASVKYDDWAKHLDQFAKYLKITGHVSFGYDVVSDILKIKDTGDWKPLFLTLEKKAADAGVSYVVALLFSLLAGTTLGIWGIAIVTGILCSYIDKNKLNTINEVLGI
B3: Colicin E3: class III bacteriocin produced by E. coli (protein, UniProt P00646 1-551, looked up)
Colicin E3: MSGGDGRGHNTGAHSTSGNINGGPTGLGVGGGASDGSGWSSENNPWGGGSGSGIHWGGGSGHGNGGGNGNSGGGSGTGGNLSAVAAPVAFGFPALSTPGAGGLAVSISAGALSAAIADIMAALKGPFKFGLWGVALYGVLPSQIAKDDPNMMSKIVTSLPADDITESPVSSLPLDKATVNVNVRVVDDVKDERQNISVVSGVPMSVPVVDAKPTERPGVFTASIPGAPVLNISVNNSTPAVQTLSPGVTNNTDKDVRPAGFTQGGNTRDAVIRFPKDSGHNAVYVSVSDVLSPDQVKQRQDEENRRQQEWDATHPVEAAERNYERARAELNQANEDVARNQERQAKAVQVYNSRKSELDAANKTLADAIAEIKQFNRFAHDPMAGGHRMWQMAGLKAQRAQTDVNNKQAAFDAAAKEKSDADAALSSAMESRKKKEDKKRSAENNLNDEKNKPRKGFKDYGHDYHPAPKTENIKGLGDLKPGIPKTPKQNGGGKRKRWTGDKGRKIYEWDSQHGELEGYRASDGQHLGSFDPKTGNQLKGPDPKRNIKKYL
B4: Microcin E492: class IIa bacteriocin produced by K. pneumoniae (protein, UniProt Q9Z4N4 16-99, looked up)
Microcin E492: GETDPNTQLLNDLGNNMAWGAALGAPGGLGSAALGAAGGALQTVGQGLIDHGPVNVPIPVLIGPSWNGSGSGYNSATSSSGSGS

What was measured:
Caenorhabditis elegans = conditions: incubation with rifamycin
[1] = system: Bacillus, Clostridium, Staphylococcus, Streptococcus, and Listeria spp.
Salmonella spp. = conditions: co-administered with EDTA
[2] = can be autoclaved at 115° C.
head/neck tumors = conditions: head and neck, mice

Molecule | Cancer Cell Type affected (cancer cell lines) | other results
CO[C@H]1/C=C/O[C@@]2(C)Oc3c(C)c(O)c4c(O)c(cc(O)c4c3C2=O)NC(=O)/C(C)=C\C=C\[C@H](C)[C@H](O)[C@@H](C)[C@@H](O)[C@@H](C)[C@H](OC(C)=O)[C@@H]1C [rifamycin] |  | increase of lifespan (Caenorhabditis elegans): up to 60%; cytotoxicity (ascites tumors): cytotoxic
Bovicin HC5 | MCF7 (breast cancer),; also recorded: HepG2 (liver cancer) | 
Nisin: lantibiotic bacteriocin produced by Lactococcus lactis, 34-residue peptide (SEQ ID NO:2) (ITSISLCTPGCKTGALMGCNMKTATCNCSIHVSK; cysteine pairing not given here; also: lanthionine modifications; listed as Lactococcus lactis) | MCF7 (breast cancer),; also recorded: HepG2 (liver cancer) | antimicrobial activity [1]: active; activity against gram negative organisms (Salmonella spp.): effective; thermal stability [2]: thermally stable; effect on tumorigenesis / tumors (head/neck tumors): reduce tumorigenesis
B1 | HepG2 (liver cancer) and Im9 | 
B2 | MCF7 (breast cancer),; also recorded: HS913T (fibrosarcoma) | 
B3 | P388 (lymphoma) and HeLa | 
B4 | HeLa (cervical cancer),; also recorded: Jurkat (leukemia); also recorded: RJ2.25 | 
